Laboratory results reported in US6750268B2, “Bonding composition” (Kuraray Co., Ltd., priority 1999, dated 2004).

Columns and labels:
[1] = Measurement of pH of acid; type: physicochemical; details: one part by weight of acid in 99 parts by weight of distilled water
Procedure: One part by weight of the acid to be measured is mixed with 99 parts by weight of distilled water, and the pH of the resulting mixture is measured with a pH meter (Iuchi's pH meter).

[2] = Solubility of a calcium salt of an acid in water; details: for Calcium Salt of Acid: Solubility in water: room temperature, macroscopic check clear or cloudy
Procedure: Next, powdery calcium carbonate (0.1 mmols) is fed into the test tube, and stirred at room temperature for 10 minutes so that it is reacted with the acid. The resulting solution is macroscopically checked as to whether it is clear or cloudy. The solubility of the calcium salt in the clear solution is above 0.1 M/L, and the acid is marked “x”.
To the cloudy solution in the test tube, 9 ml of distilled water is further added, and stirred at room temperature for 30 minutes. This is again checked macroscopically. […] When it is still cloudy in this condition, the solubility of the calcium salt is below 0.01 M/L, and the acid is marked “O”. In case where the solubility of the calcium salt of the acid tested is numerically represented, test tubes having a proper capacity are prepared, and the process as above is repeated in them. Salt solutions having different concentrations are prepared, and they are macroscopically checked to quantitatively determine the solubility of the salt.

[3] = Solubility of calcium salt of acid in film-forming agent
Procedure: Next, powdery calcium carbonate (0.1 mmols) is fed into the test tube, and stirred at room temperature for 10 minutes so that it is reacted with the acid to give a calcium salt of the acid. Next, the resulting solution is dried in a drier at 60° C. for 16 hours to remove water, and the 1 ml of a film-forming agent is added to the resulting residue. This is stirred at room temperature for 30 minutes, and the resulting solution is macroscopically checked as to whether it is clear or cloudy. The solubility of the calcium salt in the clear solution is above 0.1 M/L, and the acid is marked “x”.
To the cloudy solution in the test tube, 9 ml of the film-forming agent is further added, and stirred at room temperature for 30 minutes. This is again checked macroscopically. […] When it is still cloudy in this condition, the solubility of the calcium salt is below 0.01 M/L, and the acid is marked “O”. For easily-available calcium salts of acids, such as calcium chloride. calcium nitrate and others, they are not produced in the manner as above, but commercial products are used to measure their solubility.

[4] = Miscibility of film-forming agent with physiological saline solution (uniformity of solution); type: physicochemical; details: film-forming agent mixed with same weight of physiological saline solution 9 g/L, room temperature, shaken 20 seconds, macroscopically checked
Procedure: The film-forming agent must be soluble in water. Preferably, at least 5% by weight of the agent are soluble in water. More preferably, it is soluble in water in any ratio. In addition, the water-soluble film-forming agent must be miscible with a physiological saline solution. Whether the film-forming agent is miscible with a physiological saline solution or not can be determined from its phase diagram. […] The uniformity of the resulting solution is determined. Accordingly, the miscibility of the film-forming agent with a physiological saline solution can be determined in a simple manner.
About 1 g of the film-forming agent shown in Table 1 below was metered into a 5 ml glass bottle, and a physiological saline solution with a concentration of 9 g/L of which the weight was the same as that of the film-forming agent was put into the glass bottle, and shaken at room temperature for 20 seconds. The resulting mixture was macroscopically checked as to whether or not it could be a uniform solution.

[5] = film-forming agent 65% HEMA, 30% BMHPE, 5% Bis-GMA (Table 3)
[6] = film-forming agent 90% by weight HEMA and 10% by weight BMHPE (Table 2)

Compound	pH of Acid [1]	Calcium Salt of Acid: Solubility in Film-forming Agent [3, 6]	Solubility (Uniformity of Reference Solutions) [4]	also measured
8-methacryloyloxyoctyl phosphate [Example 8MOP]	2.2			
9-methacryloyloxynonyl phosphate [Example 9MNP]	2.2	◯		Calcium Salt of Acid: Solubility in water [2]: ◯; Calcium Salt of Acid: Solubility in Film-forming Agent [3, 5]: ◯
12-methacryloyloxydodecyl phosphate [Example 12MLP]	2.3	◯		Calcium Salt of Acid: Solubility in water [2]: ◯; Calcium Salt of Acid: Solubility in Film-forming Agent [3, 5]: ◯
C=C(C)C(=O)OCC(O)COCCOCC(O)COC(=O)C(=C)C (centres unmarked) [BMHPE, 1,2-bis(3-methacryloxy-2-hydroxypropoxy)ethane]			not dissolved	
C=C(C)C(=O)OCCOP(=O)(O)O [Example 2MEP, 2-methacryloyloxyethyl phosphate]	1.7	◯		Calcium Salt of Acid: Solubility in water [2]: ◯
C=C(C)C(=O)OCCCCCCCCCCOP(=O)(O)O [Example 10MDP, 10-methacryloyloxydecyl phosphate]	2.3	◯		solubility in water of calcium salt ([2]; numerical value): 0.0003 M/L; Calcium Salt of Acid: Solubility in water [2]: ◯; Calcium Salt of Acid: Solubility in Film-forming Agent [3, 5]: ◯
C=C(C)C(=O)OCC(O)CO (centres unmarked) [GLM, glycerol monomethacrylate]			dissolved	
C=C(C)C(=O)OCCO [HEMA, hydroxyethyl methacrylate]			dissolved	
C=C(C)C(=O)OCCCO [HPMA, hydroxypropyl methacrylate]			not dissolved	
C=C(C)C(=O)O [MRA, methacrylic acid, reference compound]	2.9	◯		
Cc1ccc(S(=O)(=O)O)cc1 [TSA, p-toluenesulfonic acid, reference compound]	1.4	◯		solubility of the calcium salt of the acid in water (in words) ([2]; description, acid used in place of the polymerizable compound having an acid group): too high
O=C(O)CC(O)(CC(=O)O)C(=O)O [citric acid]	1.6			
Cl [hydrochloric acid]	0.9			
O=[N+]([O-])O [nitric acid]	0.9			
O=C(O)C(=O)O [oxalic acid]	1.3			
O=P(O)(O)O [phosphoric acid]	1.6			
O=S(=O)(O)O [sulfuric acid]	1.1			
dimethacrylate of polyethylene glycol 200 [PE-200-OMR]			not dissolved	
monomethacrylate of polyethylene glycol 200 [PE-200-OH]			dissolved	
phenyl-2-methacryloyloxyethyl phosphate [PMEP]	1.7			
